Source: ChEMBL document CHEMBL4765415 (Eur J Med Chem, 2020)
The source made the active and inactive calls. The calls are words filed in the database; no cut-off is given here.

What was measured:
Rattus norvegicus [1] = assay: Cardioprotective activity in celecoxib-induced cardiotoxicity in albino Wistar rat assessed as restoration of serum PGI2 level at 100 mg/kg, po administered for 2 weeks and measured on day 15 by ELISA; format: functional, organism-based; settings: time 15.0 day
Rattus norvegicus [2] = assay: Antiinflammatory activity in albino rat model of carrageenan-induced paw edema assessed as inhibition of paw edema at 50 mg/kg, po administered 1 hr prior to carrageenan challenge and measured after 1 hr by Vernier caliper method relative to control; format: functional; settings: time 2 hrs
Rattus norvegicus [3] = assay: Cardioprotective activity in celecoxib-induced cardiotoxicity in albino Wistar rat assessed as change in serum LDH level at 100 mg/kg, po administered for 2 weeks and measured on day 15 by spectrophotometry (reference value: 2091.3 +/- 99.9 IU/L); format: functional; settings: time 15 day
[4] = target: T1, Bifunctional epoxide hydrolase 2 (Homo sapiens, UniProt P34913); assay: Inhibition of human sEH using epoxy flour 7 as substrate measured after 30 mins by cell-based fluorescence assay
T1 sequence (P34913 whole entry): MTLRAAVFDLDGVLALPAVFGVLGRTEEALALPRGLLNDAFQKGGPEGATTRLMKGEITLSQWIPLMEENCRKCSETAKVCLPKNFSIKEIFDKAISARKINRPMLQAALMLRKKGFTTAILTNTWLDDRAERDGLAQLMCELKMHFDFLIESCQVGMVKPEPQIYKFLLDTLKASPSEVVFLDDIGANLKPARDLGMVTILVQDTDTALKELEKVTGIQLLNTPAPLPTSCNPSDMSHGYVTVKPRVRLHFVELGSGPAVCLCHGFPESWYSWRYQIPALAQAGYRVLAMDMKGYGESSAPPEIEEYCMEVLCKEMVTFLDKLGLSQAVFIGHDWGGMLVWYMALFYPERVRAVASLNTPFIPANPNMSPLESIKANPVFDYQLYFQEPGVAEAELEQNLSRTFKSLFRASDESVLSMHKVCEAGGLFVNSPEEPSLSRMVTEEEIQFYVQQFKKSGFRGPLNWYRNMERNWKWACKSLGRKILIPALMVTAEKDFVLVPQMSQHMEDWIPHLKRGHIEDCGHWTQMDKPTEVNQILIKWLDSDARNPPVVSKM

Mus musculus [5] = assay: Analgesic activity in albino mouse assessed as inhibition of acetic acid-induced writhing at 10 mg/kg, po administered 1 hr prior to acetic acid challenge and measured after 5 to 15 mins relative to celecoxib; format: functional; settings: time 60-75 min
[6] = Cardiotoxicity in albino Wistar rat assessed as change in serum PGI2 level at 100 mg/kg, po administered for 2 weeks and measured on day 15 by ELISA; format: toxicity, organism-based; settings: in vivo, 360 h, time 15 day
Rattus norvegicus [7] = assay: Antiinflammatory activity in albino rat model of carrageenan-induced paw edema assessed as inhibition of paw edema at 50 mg/kg, po administered 1 hr prior to carrageenan challenge and measured after 3 hrs by Vernier caliper method relative to control; format: functional; settings: time 4 hrs
Rattus norvegicus [8] = assay: Cardioprotective activity in celecoxib-induced cardiotoxicity in albino Wistar rat assessed as change in serum troponin-I level at 100 mg/kg, po administered for 2 weeks and measured on day 15 by ELISA (reference value: 340 +/- 11.56 pg/ml); format: functional; settings: time 15 day
Rattus norvegicus [9] = assay: Cardioprotective activity in celecoxib-induced cardiotoxicity in albino Wistar rat assessed as reduction in edema in coronary artery at 100 mg/kg, po administered for 2 weeks and measured on day 15 by H and E staining based histopathological analysis; format: functional, organism-based; settings: time 15.0 day
Rattus norvegicus [10] = assay: Cardioprotective activity in celecoxib-induced cardiotoxicity in albino Wistar rat assessed as reduction in edema in myocardium blood vessel at 100 mg/kg, po administered for 2 weeks and measured on day 15 by H and E staining based histopathological analysis; format: functional, organism-based; settings: time 15.0 day
[11] = Selectivity index, ratio of IC50 for recombinant human COX1 to recombinant human COX2
Rattus norvegicus [12] = assay: Cardioprotective activity in celecoxib-induced cardiotoxicity in albino Wistar rat assessed as reduction in congestion in myocardium blood vessel at 100 mg/kg, po administered for 2 weeks and measured on day 15 by H and E staining based histopathological analysis; format: functional, organism-based; settings: time 15.0 day
Rattus norvegicus [13] = assay: Cardioprotective activity in celecoxib-induced cardiotoxicity in albino Wistar rat assessed as change in serum creatine kinase-MB level at 100 mg/kg, po administered for 2 weeks and measured on day 15 by spectrophotometry (reference value: 95.33 +/- 4 IU/L); format: functional; settings: time 15 day
[14] = target: T2, Prostaglandin G/H synthase 2 (Homo sapiens, UniProt P35354); assay: Inhibition of recombinant human COX2 using arachidonic acid as substrate preincubated for 5 mins followed by substrate addition and measured after 2 mins by Ellman's reagent based enzyme immunoassay; format: ADME
T2 sequence (P35354 whole entry): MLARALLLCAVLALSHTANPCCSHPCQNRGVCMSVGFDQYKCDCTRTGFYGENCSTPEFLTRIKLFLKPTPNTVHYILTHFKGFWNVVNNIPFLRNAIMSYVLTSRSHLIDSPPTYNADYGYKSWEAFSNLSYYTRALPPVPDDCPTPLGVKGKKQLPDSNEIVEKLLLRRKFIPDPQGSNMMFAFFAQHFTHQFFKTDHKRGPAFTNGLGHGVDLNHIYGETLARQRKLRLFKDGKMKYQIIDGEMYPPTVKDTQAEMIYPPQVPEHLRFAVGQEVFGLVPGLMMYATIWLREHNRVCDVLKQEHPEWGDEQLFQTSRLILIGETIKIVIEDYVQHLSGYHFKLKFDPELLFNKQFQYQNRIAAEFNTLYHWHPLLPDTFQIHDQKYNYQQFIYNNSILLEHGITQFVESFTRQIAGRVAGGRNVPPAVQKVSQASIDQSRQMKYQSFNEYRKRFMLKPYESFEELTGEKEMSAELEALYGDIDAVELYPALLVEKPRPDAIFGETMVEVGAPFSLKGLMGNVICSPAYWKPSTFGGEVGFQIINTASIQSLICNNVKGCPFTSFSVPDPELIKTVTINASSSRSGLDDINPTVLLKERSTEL

Rattus norvegicus [15] = assay: Cardioprotective activity in celecoxib-induced cardiotoxicity in albino Wistar rat assessed as restoration of GSH level in cardiac tissue at 100 mg/kg, po administered for 2 weeks and measured on day 15; format: functional, organism-based; settings: time 15.0 day
Rattus norvegicus [16] = assay: Cardioprotective activity in celecoxib-induced cardiotoxicity in albino Wistar rat assessed as change in serum TNFalpha level at 100 mg/kg, po administered for 2 weeks and measured on day 15 by ELISA (reference value: 748.67 +/- 43.15 pg/ml); format: functional; settings: time 15 day
Mus musculus [17] = assay: Analgesic activity in albino mouse assessed as inhibition of acetic acid-induced writhing at 10 mg/kg, po administered 1 hr prior to acetic acid challenge and measured after 5 to 15 mins relative to control; format: functional; settings: time 60-75 min
Rattus norvegicus [18] = assay: Antiinflammatory activity in albino rat model of carrageenan-induced paw edema assessed as inhibition of paw edema at 50 mg/kg, po administered 1 hr prior to carrageenan challenge and measured after 5 hrs by Vernier caliper method relative to control; format: functional; settings: time 6 hrs
[19] = target: Prostaglandin G/H synthase 1 (Homo sapiens, UniProt P23219); assay: Inhibition of recombinant human COX1 using arachidonic acid as substrate preincubated for 5 mins followed by substrate addition and measured after 2 mins by Ellman's reagent based enzyme immunoassay; format: ADME
Sequence of Prostaglandin G/H synthase 1 (P23219 whole entry): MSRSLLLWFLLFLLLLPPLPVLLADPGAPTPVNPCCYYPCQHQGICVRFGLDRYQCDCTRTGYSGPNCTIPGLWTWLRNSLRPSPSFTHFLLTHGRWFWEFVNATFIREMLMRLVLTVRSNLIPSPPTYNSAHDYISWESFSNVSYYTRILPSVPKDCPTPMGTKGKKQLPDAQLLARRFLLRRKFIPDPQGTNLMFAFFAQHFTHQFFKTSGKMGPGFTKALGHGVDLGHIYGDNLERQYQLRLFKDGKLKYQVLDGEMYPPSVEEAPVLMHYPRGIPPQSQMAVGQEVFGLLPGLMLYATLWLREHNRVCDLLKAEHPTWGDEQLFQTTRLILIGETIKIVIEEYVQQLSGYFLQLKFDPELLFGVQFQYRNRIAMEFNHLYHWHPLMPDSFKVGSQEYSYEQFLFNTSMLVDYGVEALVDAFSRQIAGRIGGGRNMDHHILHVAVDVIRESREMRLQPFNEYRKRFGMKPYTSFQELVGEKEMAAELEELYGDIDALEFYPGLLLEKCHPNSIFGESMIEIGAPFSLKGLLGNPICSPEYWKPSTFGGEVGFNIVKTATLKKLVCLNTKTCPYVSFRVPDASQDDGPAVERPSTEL

Rattus norvegicus [20] = assay: Cardioprotective activity in celecoxib-induced cardiotoxicity in albino Wistar rat assessed as reduction in congestion in coronary artery at 100 mg/kg, po administered for 2 weeks and measured on day 15 by H and E staining based histopathological analysis; format: functional, organism-based; settings: time 15.0 day

In the case of NS(=O)(=O)c1ccc(-n2nc(NC(=O)NC34CC5CC(CC(C5)C3)C4)cc2-c2ccccc2)cc1, the Activity (Rattus norvegicus [1]) is reported as “Active”, the inhibition in vivo at 50 mg/kg (Rattus norvegicus [2]) is reported as 62.2% and the Activity (Rattus norvegicus [3]) is reported as 1585 IU/L. The IC50 [4] was 0.55 nM, the “fold change (FC)” value (Mus musculus [5]) was 1.83 and the Activity [6] was “Toxic”. For the same compound, the inhibition in vivo at 50 mg/kg (Rattus norvegicus [7]) was 92%, the Activity (Rattus norvegicus [8]) was 150 pg/mL and the Activity (Rattus norvegicus [9]) was “Active”. For the same compound, the Activity (Rattus norvegicus [10]) was “Active”, the “Ratio IC50” value [11] was 6.41 and the Activity (Rattus norvegicus [12]) was “Active”. For the same compound, the Activity (Rattus norvegicus [13]) was 22 IU/L, the IC50 [14] was 1850 nM and the Activity (Rattus norvegicus [15]) was “Active”. It also gave an Activity (Rattus norvegicus [16]) of 322 pg/mL, an inhibition in vivo at 10 mg/kg (Mus musculus [17]) of 24.6% and an inhibition in vivo at 50 mg/kg (Rattus norvegicus [18]) of 93.8%. For the same compound, the IC50 [19] was 11800 nM and the Activity (Rattus norvegicus [20]) was “Active”.
In the case of NS(=O)(=O)c1ccc(-n2nc(NC(=O)Nc3ccc(C(F)(F)F)cc3)cc2-c2ccccc2)cc1, the IC50 [4] is reported as 0.4 nM.
For NS(=O)(=O)c1ccc(-n2nc(NC(=O)NCCCC(=O)O)cc2-c2ccccc2)cc1, the IC50 [4] was 4.01 nM.
Compound CCOC(=O)C1CCN(C(=O)Nc2cc(-c3ccccc3)n(-c3ccc(S(N)(=O)=O)cc3)n2)CC1 has an IC50 [4] of 1.74 nM.
CCOC(=O)C1CCN(C(=O)c2cc(-c3ccccc3)n(-c3ccc(S(N)(=O)=O)cc3)n2)CC1 gave an IC50 [4] of 1.61 nM.
NS(=O)(=O)c1ccc(-n2nc(C(=O)NC3CCCCC3)cc2-c2ccccc2)cc1 gave an IC50 [4] of 2.38 nM.
With Cc1ccc(-c2cc(C(F)(F)F)nn2-c2ccc(S(N)(=O)=O)cc2)cc1 [CELECOXIB] the inhibition in vivo at 50 mg/kg (Rattus norvegicus [2]) was 81.2%, the Activity [6] was “Toxic” and the inhibition in vivo at 50 mg/kg (Rattus norvegicus [7]) was 82.7%. It also gave an inhibition in vivo at 10 mg/kg (Mus musculus [17]) of 13.4% and an inhibition in vivo at 50 mg/kg (Rattus norvegicus [18]) of 88.3%.
NS(=O)(=O)c1ccc(-n2nc(C(=O)Nc3ccc(C(F)(F)F)cc3)cc2-c2ccccc2)cc1 showed an IC50 [4] of 1.21 nM.
Compound NS(=O)(=O)c1ccc(-n2nc(NC(=O)NC3CCCCC3)cc2-c2ccccc2)cc1 has an IC50 [4] of 0.98 nM.
NS(=O)(=O)c1ccc(-n2nc(C(=O)NCCCC(=O)O)cc2-c2ccccc2)cc1 showed an IC50 [4] of 1.84 nM.
With NS(=O)(=O)c1ccc(-n2nc(NC(=O)NCCCCCCCCCCC(=O)O)cc2-c2ccccc2)cc1 the IC50 [4] was 1.57 nM.
In the case of NS(=O)(=O)c1ccc(-n2nc(C(=O)NC34CC5CC(CC(C5)C3)C4)cc2-c2ccccc2)cc1, the inhibition in vivo at 50 mg/kg (Rattus norvegicus [2]) is reported as 42%, the IC50 [4] is reported as 1.15 nM and the “fold change (FC)” value (Mus musculus [5]) is reported as 4.66. The inhibition in vivo at 50 mg/kg (Rattus norvegicus [7]) was 76.5%, the “Ratio IC50” value [11] was 4.18 and the IC50 [14] was 2150 nM. For the same compound, the inhibition in vivo at 10 mg/kg (Mus musculus [17]) was 62.7%, the inhibition in vivo at 50 mg/kg (Rattus norvegicus [18]) was 84.2% and the IC50 [19] was 8990 nM.
For NS(=O)(=O)c1ccc(-n2nc(C(=O)NCCCCCCCCCCC(=O)O)cc2-c2ccccc2)cc1, the IC50 [4] was 3.31 nM.
